Biological target: T1, c-fms (Homo sapiens, UniProt P07333)
T1 construct: 3DP
Assay: c-fms autophosphorylation, fluorescence polarization competition immunoassay
Type: biochemical
Details: 10 nM c-fms, 1 mM ATP, 5 mM MgCl2, 2% DMSO; averages of three independent measurements
Protocol: The assay was performed in black 96-well microplates (LJL BioSystems). The assay buffer used was 100 mM HEPES, pH 7.5, 1 mM DTT, 0.01% (v/v) Tween-20. Compounds were diluted in assay buffer containing 4% DMSO just prior to the assay. […] The kinase reaction was initiated by adding 2 μL of 5 mM ATP (Sigma) in assay buffer. The final concentrations in the assay were 10 nM c-fms, 1 mM ATP, 5 mM MgCl2, 2% DMSO. Control reactions were ran in each plate: in positive and negative control wells, assay buffer (made 4% in DMSO) was substituted for the compound; in addition, positive control wells received 1.2 μL of 50 mM EDTA.
The plates were incubated at room temperature for 45 min. At the end of the incubation, the reaction was quenched with 1.2 μL of 50 mM EDTA (EDTA was not added to the positive control wells at this point; see above). Following a 5-min incubation, each well received 10 μL of a 1:1:3 mixture of anti-phosphotyrosine antibody, 10X, PTK green tracer, 10X (vortexed), FP dilution buffer, respectively (all from PanVera, cat. #P2837). The plate was covered, incubated for 30 min at room temperature and the fluorescence polarization was read on the Analyst. The instrument settings were: 485 nm excitation filter; 530 nm emission filter; Z height: middle of well; G factor: 0.93. […] The reported IC50 values are averages of three independent measurements.

T1 sequence (P07333 20-972): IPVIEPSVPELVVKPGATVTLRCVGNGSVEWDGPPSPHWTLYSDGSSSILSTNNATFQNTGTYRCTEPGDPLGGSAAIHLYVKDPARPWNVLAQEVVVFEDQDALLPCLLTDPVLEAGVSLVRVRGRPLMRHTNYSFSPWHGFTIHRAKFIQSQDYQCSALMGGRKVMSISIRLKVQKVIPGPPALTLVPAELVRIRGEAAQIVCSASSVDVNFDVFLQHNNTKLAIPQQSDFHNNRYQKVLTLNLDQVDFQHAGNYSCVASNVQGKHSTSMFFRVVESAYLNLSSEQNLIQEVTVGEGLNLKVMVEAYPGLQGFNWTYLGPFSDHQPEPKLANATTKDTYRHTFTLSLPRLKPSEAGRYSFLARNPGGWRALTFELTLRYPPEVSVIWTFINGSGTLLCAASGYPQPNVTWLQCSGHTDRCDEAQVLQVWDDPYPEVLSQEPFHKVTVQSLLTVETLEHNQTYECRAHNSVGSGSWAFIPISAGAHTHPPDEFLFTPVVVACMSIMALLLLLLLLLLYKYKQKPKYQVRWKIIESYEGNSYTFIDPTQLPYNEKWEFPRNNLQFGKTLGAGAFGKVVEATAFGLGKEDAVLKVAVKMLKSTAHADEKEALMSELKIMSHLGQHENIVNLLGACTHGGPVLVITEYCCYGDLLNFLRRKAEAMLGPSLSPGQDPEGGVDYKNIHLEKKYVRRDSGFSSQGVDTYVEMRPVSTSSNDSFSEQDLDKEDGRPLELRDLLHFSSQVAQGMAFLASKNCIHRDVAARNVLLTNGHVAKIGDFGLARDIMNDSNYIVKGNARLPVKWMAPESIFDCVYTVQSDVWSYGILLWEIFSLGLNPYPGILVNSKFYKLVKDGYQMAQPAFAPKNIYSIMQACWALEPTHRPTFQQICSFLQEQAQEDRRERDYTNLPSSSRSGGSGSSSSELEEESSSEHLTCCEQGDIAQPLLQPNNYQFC

SMILES	IC50 [µM]
CCc1ccc(-c2c(-c3cnc[nH]3)c(=O)[nH]c3ccc(C#N)cc23)cc1	< 0.5
Cc1cc(-c2c(-c3ccc(C(C)C)cc3)c3cc(C#N)ccc3[nH]c2=O)on1	< 0.5
Cc1cc(-c2c(-c3cc4ccccc4s3)c3cc(Cl)ccc3[nH]c2=O)on1	0.5 to 1
O=c1[nH]c2ccc(Cl)cc2c(-c2ccccc2)c1-c1ccccn1	1 to 10
Cc1cc(-c2c(-c3ccc4ccccc4c3)c3cc(Cl)ccc3[nH]c2=O)on1	1 to 10
Cc1cc(-c2c(-c3ccccc3)c3cc(Br)ccc3[nH]c2=O)on1	< 0.5
Cc1cc(-c2c(-c3cc4ccccc4o3)c3cc(Cl)ccc3[nH]c2=O)on1	1 to 10
Cc1cc(-c2c(-c3ccccc3)c3cc(C(=O)O)ccc3[nH]c2=O)on1	1 to 10
Cc1cc(-c2c(-c3ccccc3)c3cc(O)ccc3[nH]c2=O)on1	1 to 10
Cc1cc(-c2c(-c3ccccn3)c3cc(Cl)ccc3[nH]c2=O)on1	1 to 10
COc1cccc(-c2c(-c3cc(C)no3)c(=O)[nH]c3ccc(Cl)cc23)c1	0.5 to 1
Cc1cc(-c2c(-c3cccc(O)c3)c3cc(Cl)ccc3[nH]c2=O)on1	< 0.5
O=C(O)c1cc(-c2c(-c3ccccc3)c3cc(Cl)ccc3[nH]c2=O)on1	< 0.5
CCOC(=O)c1cccc(-c2c(-c3ccccc3)c3cc(Cl)ccc3[nH]c2=O)c1	> 10
CC(C)(C)c1cc(-c2c(-c3ccccc3)c3cc(Cl)ccc3[nH]c2=O)on1	< 0.5
CC(C)Cc1coc(-c2c(-c3ccccc3)c3cc(Cl)ccc3[nH]c2=O)n1	> 10
O=c1[nH]c2ccc(Cl)cc2c(-c2ccccc2)c1-c1cccnc1	1 to 10
Cc1cc(-c2c(-c3cccnc3)c3cc(Cl)ccc3[nH]c2=O)on1	1 to 10
O=c1[nH]c2ccc(Cl)cc2c(-c2ccccc2)c1-c1cn(Cc2ccccc2)nn1	0.5 to 1

Next, values leading:

IC50 [µM]	SMILES
0.5 to 1	Cc1cc(-c2c(-c3ccc(OC(F)(F)F)cc3)c3cc(C#N)ccc3[nH]c2=O)on1
< 0.5	Cc1cc(-c2c(-c3ccccc3F)c3cc(Cl)ccc3[nH]c2=O)on1
> 10	Cc1cc(-c2c(-c3ccccc3)c3cccc(Cl)c3[nH]c2=O)on1
< 0.5	Cc1cc(-c2c(-c3cccs3)c3cc(Cl)ccc3[nH]c2=O)on1
1 to 10	O=c1[nH]c2ccc(Cl)cc2c(-c2ccccc2)c1-c1nc2ccccc2[nH]1
0.5 to 1	Cc1cc(-c2c(N3CCC(C)(C)CC3)c3cc(Cl)ccc3[nH]c2=O)on1
> 10	Cc1cc(-c2c(-c3ccccc3)c3cc(C(O)CO)ccc3[nH]c2=O)on1 (stereo not shown)
1 to 10	O=c1[nH]c2ccc(Cl)cc2c(-c2ccccc2)c1-c1cc(CCc2ccccc2)no1
> 10	Cc1cc(-c2c(-c3ccccc3)c3ccc(Cl)cc3[nH]c2=O)on1
< 0.5	O=c1[nH]c2ccc(Br)cc2c(-c2ccccc2)c1-c1cnc[nH]1
< 0.5	Cc1cc(-c2c(C3=CCCCCC3)c3cc(C#N)ccc3[nH]c2=O)on1
1 to 10	O=c1[nH]c2ccc(Cl)cc2c(-c2ccccc2)c1-c1cncc(Br)c1
> 10	Cc1cc(-c2c(-c3ccccc3)c3cc(CO)ccc3[nH]c2=O)on1
1 to 10	CC(=O)Nc1cc(-c2c(-c3ccccc3)c3cc(Cl)ccc3[nH]c2=O)on1
< 0.5	Cc1cc(-c2c(N3CCCCC3)c3cc(Cl)ccc3[nH]c2=O)on1
> 10	O=c1[nH]c2ccc(Cl)cc2c(-c2ccccc2)c1-c1nnn[nH]1
< 0.5	CCc1ccc(-c2c(-c3cc(C)no3)c(=O)[nH]c3ccc(C#N)cc23)cc1
< 0.5	C=Cc1ccc(-c2c(-c3cc(C)no3)c(=O)[nH]c3ccc(C#N)cc23)cc1

Source: US7326788B2, “Quinolinone derivatives as inhibitors of c-fms kinase” (Janssen Pharmaceutica N.V., priority 2003, dated 2008)
